The supplement of paper PMC10307832

What was measured:
Test in all cases: relative viability (nuclei count vs DMSO), 5 days (fraction); higher = more cells survive
[1] = compound: C1COCCN1C2=NC(=NC3=C2OC4=C3C=CC=N4)C5=CC(=CC=C5)NC(=O)C6=CN=C(C=C6)N + Cc1nc(Nc2ncc(C(=O)Nc3c(C)cccc3Cl)s2)cc(N2CCN(CCO)CC2)n1 [Dasatinib] (partner 0.075 µM)
Procedure, shortened: (§1)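 Medians of duplicate plates are given as relative viability. That measure is the nuclei count in treated wells divided by the count in vehicle wells. Counts were taken on 4× images of lung cancer cell lines in 1536-well plates, 5 days after pin-tool dosing the day after seeding with one drug alone or a fixed anchor-drug dose plus five library-drug doses (not always all listed) in √10 steps.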

[2] = compound: C1COCCN1C2=NC(=NC3=C2OC4=C3C=CC=N4)C5=CC(=CC=C5)NC(=O)C6=CN=C(C=C6)N + NC(=O)Nc1cc(-c2cccc(F)c2)sc1C(=O)N[C@H]1CCCNC1 [AZD7762] (partner 0.2 µM)
Procedure, shortened: as §1

SGI-1776 + AZD7762 = compound: CN1CCC(CNc2ccc3ncc(-c4cccc(OC(F)(F)F)c4)n3n2)CC1 [SGI-1776] + NC(=O)Nc1cc(-c2cccc(F)c2)sc1C(=O)N[C@H]1CCCNC1 [AZD7762] (partner 0.2 µM)
Procedure, shortened: as §1

Entinostat + Olaparib = compound: Nc1ccccc1NC(=O)c1ccc(CNC(=O)OCc2cccnc2)cc1 [Entinostat] + O=C(c1cc(Cc2n[nH]c(=O)c3ccccc23)ccc1F)N1CCN(C(=O)C2CC2)CC1 [Olaparib] (partner 8 µM)
Procedure, shortened: as §1

HARA
relative viability ([1]; first compound 0.02 µM): 0.32
relative viability ([1]; first compound 0.06325 µM): 0.265
relative viability ([1]; first compound 0.2 µM): 0.216
relative viability ([1]; first compound 0.6325 µM): 0.23
relative viability ([1]; first compound 2 µM): 0.221
relative viability ([2]; first compound 0.02 µM): 0.382
relative viability ([2]; first compound 0.06325 µM): 0.41
relative viability ([2]; first compound 0.2 µM): 0.305
relative viability ([2]; first compound 0.6325 µM): 0.403
relative viability ([2]; first compound 2 µM): 0.359
relative viability (SGI-1776 + AZD7762; first compound 0.08 µM): 0.345
relative viability (SGI-1776 + AZD7762; first compound 0.8 µM): 0.306
relative viability (SGI-1776 + AZD7762; first compound 2.53 µM): 0.292
relative viability (SGI-1776 + AZD7762; first compound 8 µM): 0.218
relative viability (Entinostat + Olaparib; first compound 0.02 µM): 0.761
relative viability (Entinostat + Olaparib; first compound 0.06325 µM): 0.944
relative viability (Entinostat + Olaparib; first compound 0.2 µM): 0.675
relative viability (Entinostat + Olaparib; first compound 0.6325 µM): 0.876
relative viability (Entinostat + Olaparib; first compound 2 µM): 0.314

NCI-H1793
relative viability ([1]; first compound 0.02 µM): 0.378
relative viability ([1]; first compound 0.06325 µM): 0.453
relative viability ([1]; first compound 0.2 µM): 0.417
relative viability ([1]; first compound 0.6325 µM): 0.334
relative viability ([1]; first compound 2 µM): 0.383
relative viability ([2]; first compound 0.02 µM): 0.723
relative viability ([2]; first compound 0.06325 µM): 0.457
relative viability ([2]; first compound 0.2 µM): 0.357
relative viability ([2]; first compound 0.6325 µM): 0.298
relative viability ([2]; first compound 2 µM): 0.279
relative viability (SGI-1776 + AZD7762; first compound 0.08 µM): 0.558
relative viability (SGI-1776 + AZD7762; first compound 0.8 µM): 0.408
relative viability (SGI-1776 + AZD7762; first compound 2.53 µM): 0.32
relative viability (SGI-1776 + AZD7762; first compound 8 µM): 0.252
relative viability (Entinostat + Olaparib; first compound 0.02 µM): 0.929
relative viability (Entinostat + Olaparib; first compound 0.06325 µM): 0.959
relative viability (Entinostat + Olaparib; first compound 0.2 µM): 0.743
relative viability (Entinostat + Olaparib; first compound 0.6325 µM): 0.681
relative viability (Entinostat + Olaparib; first compound 2 µM): 0.236

NCI-H1623
relative viability ([1]; first compound 0.02 µM): 0.516
relative viability ([1]; first compound 0.06325 µM): 0.469
relative viability ([1]; first compound 0.2 µM): 0.516
relative viability ([1]; first compound 0.6325 µM): 0.527
relative viability ([1]; first compound 2 µM): 0.498

NCI-H2023
relative viability ([1]; first compound 0.02 µM): 0.632
relative viability ([1]; first compound 0.06325 µM): 0.648
relative viability ([1]; first compound 0.2 µM): 0.47
relative viability ([1]; first compound 0.6325 µM): 0.484
relative viability ([1]; first compound 2 µM): 0.251
relative viability (Entinostat + Olaparib; first compound 0.02 µM): 0.327
relative viability (Entinostat + Olaparib; first compound 0.06325 µM): 0.253
relative viability (Entinostat + Olaparib; first compound 0.2 µM): 0.185
relative viability (Entinostat + Olaparib; first compound 0.6325 µM): 0.0826
relative viability (Entinostat + Olaparib; first compound 2 µM): 0.0815

ABC-1
relative viability ([1]; first compound 0.02 µM): 0.586
relative viability ([1]; first compound 0.06325 µM): 0.612
relative viability ([1]; first compound 0.2 µM): 0.523
relative viability ([1]; first compound 0.6325 µM): 0.587
relative viability ([1]; first compound 2 µM): 0.54
relative viability ([2]; first compound 0.02 µM): 0.793
relative viability ([2]; first compound 0.06325 µM): 0.638
relative viability ([2]; first compound 0.2 µM): 0.608
relative viability ([2]; first compound 0.6325 µM): 1.03
relative viability ([2]; first compound 2 µM): 0.684
relative viability (SGI-1776 + AZD7762; first compound 0.08 µM): 0.801
relative viability (SGI-1776 + AZD7762; first compound 0.8 µM): 0.648
relative viability (SGI-1776 + AZD7762; first compound 2.53 µM): 0.85
relative viability (SGI-1776 + AZD7762; first compound 8 µM): 0.83
relative viability (Entinostat + Olaparib; first compound 0.02 µM): 0.508
relative viability (Entinostat + Olaparib; first compound 0.06325 µM): 1.11
relative viability (Entinostat + Olaparib; first compound 0.2 µM): 0.758
relative viability (Entinostat + Olaparib; first compound 0.6325 µM): 0.993
relative viability (Entinostat + Olaparib; first compound 2 µM): 1.07

LC-2-ad
relative viability ([1]; first compound 0.02 µM): 0.629
relative viability ([1]; first compound 0.06325 µM): 0.716
relative viability ([1]; first compound 0.2 µM): 0.52
relative viability ([1]; first compound 0.6325 µM): 0.435
relative viability ([1]; first compound 2 µM): 0.417
relative viability ([2]; first compound 0.02 µM): 0.939
relative viability ([2]; first compound 0.06325 µM): 0.9
relative viability ([2]; first compound 0.2 µM): 0.831
relative viability ([2]; first compound 0.6325 µM): 0.805
relative viability ([2]; first compound 2 µM): 0.585
relative viability (SGI-1776 + AZD7762; first compound 0.08 µM): 0.886
relative viability (SGI-1776 + AZD7762; first compound 0.8 µM): 0.901
relative viability (SGI-1776 + AZD7762; first compound 2.53 µM): 0.771
relative viability (SGI-1776 + AZD7762; first compound 8 µM): 0.691
relative viability (Entinostat + Olaparib; first compound 0.02 µM): 0.785
relative viability (Entinostat + Olaparib; first compound 0.06325 µM): 0.635
relative viability (Entinostat + Olaparib; first compound 0.2 µM): 0.633
relative viability (Entinostat + Olaparib; first compound 0.6325 µM): 0.527
relative viability (Entinostat + Olaparib; first compound 2 µM): 0.3
